Patent US11384075B2, “Quinolinone compounds” (Janssen Pharmaceutica NV, priority 2017, dated 2022)
Where two headings read alike, the source gives them in different places.

What was measured:
[1] = target: T1, human FGFR3 V555M enzyme (cytoplasmic domain carrying V555M mutation) (Homo sapiens, UniProt P22607, V555M); assay: FGFR3 V555M mobility shift assay (enzymatic assay); format: biochemical; details: 30 μM ATP, 45 minutes at 30° C., Caliper EZ reader II
T1 construct: human FGFR3 V555M enzyme (cytoplasmic domain carrying V555M mutation, from Carna Biosciences); purchased Carna Biosciences
Experimental: FGFR3 V555M Mobility Shift Assay (Enzymatic Assay)
(§1) In a final reaction volume of 25 μL, 0.04 ng/μL human FGFR3 V555M enzyme (cytoplasmic domain carrying V555M mutation, from Carna Biosciences) was incubated with 30 μM ATP, 1 μM FL-peptide 30 substrate and 250 nL of testing compound (1% DMSO final) in assay buffer (100 mM HEPES pH 7.4, 10 mM MgCl2, 0.003% Brij35, 1 mM DTT). After incubation for 45 minutes at 30° C. the reaction was stopped with 10 μL of 0.5M EDTA pH 8.0, and then 25 μL of reaction mixture was transferred to reading plate and measured on Caliper EZ reader II. The substrate-product conversion rate was used as raw data for normalization and concentration-response curve (10 dose points with 4× serial dilution, starting with 10 μM) was plotted using Prism to calculate IC50 (M), pIC50 (−log IC50) and HillSlope value.

[2] = tested on: NIH/3T3 cells transfected with the same control vector; assay: NIH/3T3 mock cell proliferation assay (counter assay, general toxicity); format: cell-based; details: 72-hr incubation, CellTiter Glo, starting with 30 μM, counter assay for general toxicity, read-out: NIH/3T3 MOCK CTG (IC50)
Experimental: NIH/3T3 Mock Cell Proliferation Assay
(§2) In day 1, 90 μL of cell suspension (NIH/3T3 cells transfected with the same control vector as in the above two proliferation assays) (total 30,000 cells per well in growth medium (DMEM containing 1% Glutamax, 10% FBS and 1% Pen/Strep)) was seeded in a 96-well plate and then incubated overnight at 37° C. and 5% CO2. In day 2, 10 μL of growth medium containing 10-fold stock solution of testing compound was added into cell cultures (9 dose points with 3× serial dilution, starting with 30 μM, 0.3% DMSO final). After 72-hr incubation at 37° C. and 5% CO2, in day 5 a volume of 50 μL CellTiter Glo (CTG) reagent was added into cell-containing 96-well plate and the plate was incubated at room temperature for 10 minutes before RLUs (relative light unit) were measured on a microplate reader with luminescence detection module. The RLU value was normalized to survival % and concentration-response curve was plotted using Prism to calculate IC50 (M), pIC50 (−log IC50) and HillSlope value.

[3] = target: T2, NIH/3T3 cells overexpressing FGFR3 V555M-TACC3 fusion protein (Homo sapiens, UniProt P22607, V555M, cells depend on it); assay: NIH/3T3 FGFR3 V555M-TACC3 cell proliferation assay; format: cell-based; details: 72-hr incubation, CellTiter Glo, starting with 10 μM; read-out: NIH/3T3 FGFR3 V555M-TACC3 CTG (IC50)
T2 construct: NIH/3T3 FGFR3 V555M-TACC3 CTG (IC50); other: 72-hr incubation, CellTiter Glo, starting with 10 μM; fused on or other part: Q9Y6A5 (Transforming acidic coiled-coil-containing protein 3)
Experimental: NIH/3T3 FGFR3 V555M-TACC3 Cell Proliferation Assay
as §2, with “cells overexpressing FGFR3 V555M-TACC3 fusion protein)” for “cells transfected with the same control vector as in the above two proliferation assays)”, “with 4×” for “with 3×”, “with 10” for “with 30”, “μM, 0.1%” for “μM, 0.3%”

[4] = target: T3, human FGFR3 wild type enzyme (cytoplasmic domain) (Homo sapiens, UniProt P22607); assay: FGFR3 wild type mobility shift assay (enzymatic assay); format: biochemical; details: 75 μM ATP, 50 minutes at 30° C., Caliper EZ reader II
T3 construct: human FGFR3 wild type enzyme (cytoplasmic domain, from Carna Biosciences); purchased Carna Biosciences
Experimental: FGFR3 Wild Type Mobility Shift Assay (Enzymatic Assay)
as §1, with “FGFR3 wild type” for “FGFR3 V555M”, “(cytoplasmic domain,” for “(cytoplasmic domain carrying V555M mutation,”, “with 75” for “with 30”, “for 50” for “for 45”

[5] = target: T4, NIH/3T3 cells overexpressing FGFR3 WT-TACC3 fusion protein (Homo sapiens, UniProt P22607); assay: NIH/3T3 FGFR3 WT-TACC3 cell proliferation assay; format: cell-based; details: 72-hr incubation, CellTiter Glo, starting with 10 μM; read-out: NIH/3T3 FGFR3 WT-TACC3 CTG (IC50)
T4 construct: NIH/3T3 FGFR3 WT-TACC3 CTG (IC50); other: 72-hr incubation, CellTiter Glo, starting with 10 μM; fused on or other part: Q9Y6A5 (Transforming acidic coiled-coil-containing protein 3)
Experimental: NIH/3T3 FGFR3 WT-TACC3 Cell Proliferation Assay
as §2, with “cells overexpressing FGFR3 WT-TACC3 fusion protein)” for “cells transfected with the same control vector as in the above two proliferation assays)”, “with 4×” for “with 3×”, “with 10” for “with 30”, “μM, 0.1%” for “μM, 0.3%”

T2 sequence (P22607 whole entry V555M, the tested form may be a part): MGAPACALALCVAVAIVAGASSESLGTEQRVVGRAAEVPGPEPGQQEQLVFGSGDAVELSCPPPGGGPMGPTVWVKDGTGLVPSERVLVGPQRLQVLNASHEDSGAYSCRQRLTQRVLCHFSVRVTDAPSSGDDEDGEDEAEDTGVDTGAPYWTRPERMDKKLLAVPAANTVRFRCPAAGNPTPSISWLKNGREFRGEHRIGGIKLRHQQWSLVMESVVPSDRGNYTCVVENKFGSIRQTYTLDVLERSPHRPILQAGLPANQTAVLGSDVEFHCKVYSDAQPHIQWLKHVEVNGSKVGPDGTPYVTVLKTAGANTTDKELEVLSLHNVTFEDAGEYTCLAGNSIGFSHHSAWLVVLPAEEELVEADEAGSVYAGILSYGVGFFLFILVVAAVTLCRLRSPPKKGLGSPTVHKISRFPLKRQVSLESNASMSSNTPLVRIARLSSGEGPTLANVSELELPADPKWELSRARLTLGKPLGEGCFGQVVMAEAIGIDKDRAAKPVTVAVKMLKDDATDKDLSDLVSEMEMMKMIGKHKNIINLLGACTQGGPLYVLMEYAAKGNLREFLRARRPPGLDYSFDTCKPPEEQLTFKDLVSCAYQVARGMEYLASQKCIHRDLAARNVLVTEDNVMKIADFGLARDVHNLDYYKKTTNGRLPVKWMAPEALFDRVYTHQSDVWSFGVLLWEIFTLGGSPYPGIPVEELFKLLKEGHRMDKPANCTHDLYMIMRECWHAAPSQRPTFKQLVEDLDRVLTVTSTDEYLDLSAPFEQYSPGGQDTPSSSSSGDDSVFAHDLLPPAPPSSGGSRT
T4 sequence (P22607 whole entry, change not shown, the tested form may be a part): as the sequence (P22607 whole entry V555M, the tested form may be a part) above, with M555V counted along it
T1 sequence (P22607 397-806 V555M limits assumed): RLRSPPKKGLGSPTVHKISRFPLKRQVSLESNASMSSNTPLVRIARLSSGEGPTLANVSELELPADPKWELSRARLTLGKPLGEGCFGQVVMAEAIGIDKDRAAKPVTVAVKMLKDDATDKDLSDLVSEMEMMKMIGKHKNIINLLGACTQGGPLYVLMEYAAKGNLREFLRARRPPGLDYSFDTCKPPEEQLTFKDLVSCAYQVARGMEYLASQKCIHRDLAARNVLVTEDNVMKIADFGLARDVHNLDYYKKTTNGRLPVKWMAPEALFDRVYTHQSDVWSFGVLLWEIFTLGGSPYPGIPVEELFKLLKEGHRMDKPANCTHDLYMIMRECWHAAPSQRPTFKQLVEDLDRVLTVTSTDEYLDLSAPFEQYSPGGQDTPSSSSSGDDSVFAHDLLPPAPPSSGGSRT
T3 sequence (P22607 397-806 limits assumed): as the sequence (P22607 397-806 V555M limits assumed) above, with M159V counted along it

CC(Nc1c(-c2nc3ccc(N4CCN(CCC(F)(F)F)CC4)cc3[nH]2)c(=O)[nH]c2ccccc12)c1ncccn1 (single isomer, unassigned) [Compound 41a, (S*)-4-((1-(pyrimidin-2-yl)ethyl)amino)-3-(6-(4-(3,3,3-trifluoropropyl)piperazin-1-yl)-1H-benzo[d]imidazol-2-yl)quinolin-2(1H)-one]
IC50 [1]: 0.485 nM
IC50 ([2]; Mus musculus, NIH3T3, 72 h): 6970 nM
GI50 [3]: 5.01 nM
IC50 [4]: 0.668 nM
GI50 [5]: 7.08 nM

CC(Nc1c(-c2nc3ccc(N4CCC(OC(F)(F)F)CC4)cc3[nH]2)c(=O)[nH]c2ccccc12)c1ncccn1 (single isomer, unassigned) [Compound 43a, (S*)-4-((1-(pyrimidin-2-yl)ethyl)amino)-3-(6-(4-(trifluoromethoxy)piperidin-1-yl)-1H-benzo[d]imidazol-2-yl)quinolin-2(1H)-one]
IC50 [1]: 0.643 nM
IC50 ([2]; Mus musculus, NIH3T3, 72 h): 8270 nM
GI50 [3]: 9.93 nM
IC50 [4]: 1 nM
GI50 [5]: 20.3 nM

CC(Nc1c(-c2nc3ccc(N4CC5CCC(C4)O5)cc3[nH]2)c(=O)[nH]c2ccccc12)c1ncccn1 (single isomer, unassigned) [Compound 44a, 3-(6-(8-oxa-3-azabicyclo[3.2.1]octan-3-yl)-1H-benzo[d]imidazol-2-yl)-4-(((S*)-1-(pyrimidin-2-yl)ethyl)amino)quinolin-2(1H)-one]
IC50 [1]: 0.147 nM
IC50 ([2]; Mus musculus, NIH3T3, 72 h): 3040 nM
GI50 [3]: 3.98 nM
IC50 [4]: 0.244 nM
GI50 [5]: 9.46 nM

CC(Nc1c(-c2nc3cc(C(F)(F)F)c(N4CCOCC4)cc3[nH]2)c(=O)[nH]c2ccccc12)c1ncccn1 (single isomer, unassigned) [Compound 45, (S*)-3-(6-morpholino-5-(trifluoromethyl)-1H-benzo[d]imidazol-2-yl)-4-((1-(pyrimidin-2-yl)ethyl)amino)quinolin-2(1H)-one]
IC50 [1]: 0.483 nM
IC50 ([2]; Mus musculus, NIH3T3, 72 h): 12700 nM
GI50 [3]: 12.2 nM
IC50 [4]: 1.17 nM
GI50 [5]: 25.3 nM

COc1ccnc(C(C)Nc2c(-c3nc4ccc(N5CCOCC5)cc4[nH]3)c(=O)[nH]c3ccccc23)c1 (single isomer, unassigned) [Compound 48a, (S*)-4-((1-(4-methoxypyridin-2-yl)ethyl)amino)-3-(6-morpholino-1H-benzo[d]imidazol-2-yl)quinolin-2(1H)-one]
IC50 [1]: 5.41 nM
IC50 ([2]; Mus musculus, NIH3T3, 72 h): 5670 nM
GI50 [3]: 547 nM
IC50 [4]: 19.9 nM
GI50 [5]: 454 nM

CC(Nc1c(-c2nc3ccc(N4CCOCC4)cc3[nH]2)c(=O)[nH]c2ccccc12)c1cocn1 (single isomer, unassigned) [Compound 51a, (S*)-3-(6-morpholino-1H-benzo[d]imidazol-2-yl)-4-((1-(oxazol-4-yl)ethyl)amino)-quinolin-2(1H)-one]
IC50 [1]: 0.237 nM
IC50 ([2]; Mus musculus, NIH3T3, 72 h): 1180 nM
GI50 [3]: 30.2 nM
IC50 [4]: 1.31 nM
GI50 [5]: 30.1 nM

CC(Nc1c(-c2nc3ccc(N4CCOCC4)cc3[nH]2)c(=O)[nH]c2ccccc12)c1cscn1 (single isomer, unassigned) [Compound 52a, (S*)-3-(6-morpholino-1H-benzo[d]imidazol-2-yl)-4-((1-(thiazol-4-yl)ethyl)amino)-quinolin-2(1H)-one]
IC50 [1]: 0.208 nM
IC50 ([2]; Mus musculus, NIH3T3, 72 h): 1430 nM
GI50 [3]: 6.69 nM
IC50 [4]: 0.858 nM
GI50 [5]: 23.1 nM

CC(Nc1c(-c2nc3ccc(-c4cnn(C)c4)cc3[nH]2)c(=O)[nH]c2ccccc12)c1ncccn1 (single isomer, unassigned) [Compound 53a, (S*)-3-(6-(1-methyl-1H-pyrazol-4-yl)-1H-benzo[d]imidazol-2-yl)-4-((1-(pyrimidin-2-yl)ethyl)amino)quinolin-2(1H)-one]
IC50 [1]: 0.186 nM
IC50 ([2]; Mus musculus, NIH3T3, 72 h): 1690 nM
GI50 [3]: 8.64 nM
IC50 [4]: 0.47 nM
GI50 [5]: 9.9 nM

CC(Nc1c(-c2nc3cc(C(F)(F)F)c(N4CCC(C(=O)O)CC4)cc3[nH]2)c(=O)[nH]c2ccccc12)c1ncccn1 (single isomer, unassigned) [Compound 58, (S*)-1-(2-(2-oxo-4-((1-(pyrimidin-2-yl)ethyl)amino)-1,2-dihydroquinolin-3-yl)-5-(trifluoromethyl)-1H-benzo[d]imidazol-6-yl)piperidine-4-carboxylic acid]
IC50 [1]: 0.382 nM
IC50 ([2]; Mus musculus, NIH3T3, 72 h): 8240 nM
GI50 [3]: 28.9 nM
IC50 [4]: 0.545 nM
GI50 [5]: 4.19 nM

COC(=O)C1CN(c2ccc3nc(-c4c(N[C@@H](C)c5ccccn5)c5ccccc5[nH]c4=O)[nH]c3c2)CCO1 (single isomer, unassigned) [Compound 61, (S*)-methyl 4-(2-(2-oxo-4-(((S)-1-(pyridin-2-yl)ethyl)amino)-1,2-dihydroquinolin-3-yl)-1H-benzo[d]imidazol-6-yl)morpholine-2-carboxylate]
IC50 [1]: 1.13 nM
IC50 [2]: 1840 nM
GI50 [3]: 111 nM
IC50 [4]: 2.15 nM
GI50 [5]: 113 nM

COC(=O)C1CN(c2ccc3nc(-c4c(N[C@@H](C)c5ccccn5)c5ccccc5[nH]c4=O)[nH]c3c2)CCO1 (single isomer, unassigned) [Compound 62, (R*)-methyl 4-(2-(2-oxo-4-(((S)-1-(pyridin-2-yl)ethyl)amino)-1,2-dihydroquinolin-3-yl)-1H-benzo[d]imidazol-6-yl)morpholine-2-carboxylate]
IC50 [1]: 1.21 nM
IC50 [2]: 12700 nM
GI50 [3]: 451 nM
IC50 [4]: 2.91 nM
GI50 [5]: 389 nM
